Where a name gives a salt, the structure may show the parent alone.
system: AsPC-1 (G12D); test: KRAS mutant cell proliferation inhibition assay (CellTiter-Glo 3D), AsPC-1; format: cell-based, human; conditions: Homo sapiens, ASPC1, 168 h, AsPC-1 (G12D) cells, 7 days
Experimental: (§1) Positive control: MRTX1133
(§2) • (a) The cells were thawed in T75 cell culture flasks: • (b) When 80%-90% cell confluence was achieved, the cells were passaged.
(§3) The diluted test compound was added to a 384-well cell culture plate using a nanoliter pipetting system, and replicate wells were set. An equal volume of medium was added to the positive control group; an equal volume of DMSO was added to the negative control group. The plate was centrifuged at 1000 rpm at room temperature for 1 min.
(§4) The cells were seeded into a) 384-well culture plate. An equal volume of cells was added to the negative control group, and only an equal volume of medium was added to the positive control group. The plate was centrifuged at 1000 rpm at room temperature for 1 min. The final DMSO concentration in the final compound was 0.5%. The plate was incubated in a thermostatic incubator at 37° C. with 5% CO2 for 7 days.
(§5) CellTiter-Glo® 3D was added to b) 384-well cell culture plate at 20 μL/well. The plate was shaken at 320 rpm in the dark for 20 min, and incubated at room temperature in the dark for 2 h. The luminescence values were read using an Envision multi-mode microplate reader.
(§6) The inhibition rates (IRs) of the test compounds were calculated according to the following formula: IR (%)=(1−(RLU compound−RLU blank control)/(RLU vehicle control−RLU blank control))×100%. The inhibition rates of the compounds at different concentrations were calculated in Excel, and then inhibition curves were plotted and relevant parameters including minimum inhibition rate, maximum inhibition rate and IC50 were calculated using GraphPad Prism software.

Row | Compound | IC50 [nM]
1 | CN(C)C(=O)c1cc2n(n1)CCCN(c1nc(OC[C@@]34CCCN3C[C@@]3(CC3(F)F)C4)nc3c1CCN(c1ccc(F)c4sc(N)c(C#N)c14)C3)C2 [Example B-15, 5-(7-(2-Amino-3-cyano-7-fluorobenzo[b]thiophen-4-yl)-2-(((trans)-2,2-fluorodihydro-1′H,3′H-spiro[cyclopropane-1,2′-pyrrolizin]-7a′ (5′H)-yl)methoxy)-5,6,7,8-tetrahydropyrido[3,4-d]pyrimidin-4-yl)-N,N-dimethyl-5,6,7,8-tetrahydro-4H-pyrazolo[1,5-a][1,4]diazepine-2-carboxamide] | > 1000
2 | CCc1c(F)ccc2cc(O)cc(-c3ncc4c(N5CCC[C@]6(CCO6)C5)nc(OC[C@@]56CCCN5C[C@@]5(CC5(F)F)C6)nc4c3F)c12 (single isomer, unassigned) [Example A-16B] | 387
3 | CC(C1CC1)N(C)c1nc(OC[C@@]23CCCN2C[C@@]2(CC2(F)F)C3)nc2c(F)c(-c3cc(N)cc(Cl)c3C(F)(F)F)ncc12 (stereo partly shown) [Example A-43, 7-(5-Amino-3-chloro-2-(trifluoromethyl)phenyl)-N-(1-cyclopropylethyl)-2-(((1.S,7a'S)-2,2-difluorodihydro-1′H,3′H-spiro[cyclopropane-1,2′-pyrrolizin]-7a′ (5′H)-yl)methoxy)-8-fluoro-N-methylpyrido[4,3-d]pyrimidin-4-amine trifluoroacetate] | 986
4 | CN(C)C(=O)c1cc2n(n1)CCCN(c1nc(OC[C@]34CCCN3C[C@]3(CC3(F)F)C4)nc3c1CCN(c1cccc4ccc(F)c(Cl)c14)C3)C2 [Example B-16, 5-(7-(8-Chloro-7-fluoronaphthalen-1-yl)-2-(((trans)-2,2-2,2-fluorodihydro-1′H,3′H-spiro[cyclopropane-1,2′-pyrrolizin]-7a′ (5′H)-yl)methoxy)-5,6,7,8-tetrahydropyrido[3,4-d]pyrimidin-4-yl)-N,N-dimethyl-5,6,7,8-tetrahydro-4H-pyrazolo[1,5-a][1,4]diazepine-2-carboxamide] | > 1000
5 | CCc1c(F)ccc2cc(O)cc(-c3ncc4c(N(C)C5CC5)nc(OC[C@@]56CCCN5C[C@@]5(CC5(F)F)C6)nc4c3F)c12 [Example A-40, 4-(4-(Cyclopropyl(methyl)amino)-2-(((1S,7a'S)-2,2-difluorodihydro-1′H,3′ H-spiro[cyclopropane-1,2′-pyrrolizin]-7a′ (5′H)-yl)methoxy) 8-fluoropyrido[4,3-d]pyrimidin-7-yl)-5-ethyl-6-fluoronaphthalen-2-ol] | > 1000
6 | CCc1c(F)ccc2cc(O)cc(-c3ncc4c(N(C)C(C)C5CC5)nc(OC[C@@]56CCCN5C[C@@]5(CC5(F)F)C6)nc4c3F)c12 (stereo partly shown) [Example A-42, 4-(4-((1-Cyclopropylethyl)(methyl)amino)-2-(((15,7a'S)-2,2-difluorodihydro-1′H,3′H-spiro[cyclopropane-1,2′-pyrrolizin]-7a′ (5′H)-yl)methoxy)-8-fluoropyrido[4,3-d]pyrimidin-7-yl)-5-ethyl-6-fluoronaphthalen-2-ol trifluoroacetate] | > 1000
7 | CCc1c(F)ccc2cc(O)cc(-c3ncc4c(N5CC6(CCO6)C5)nc(OC[C@@]56CCCN5C[C@@]5(CC5(F)F)C6)nc4c3F)c12 [Example A-23, 4-(2-(((1S,7a'S)-2,2-Difluorodihydro-1′H,3′H-spiro[cyclopropane-1,2′-pyrrolizin]-7a′ (5′H)-yl)methoxy)-8-fluoro-4-(1-oxa-6-azaspiro[3.4]heptan-6-yl)pyrido[4,3-d]pyrimidin-7-yl)-5-ethyl-6-fluoronaphthalen-2-ol] | > 1000
8 | CCc1c(F)ccc2cc(O)cc(-c3ncc4c(N5CCC6(COC6)C5)nc(OC[C@@]56CCCN5C[C@@]5(CC5(F)F)C6)nc4c3F)c12 [Example A-21, 4-(2-(((1S,7a'S)-2,2-Difluorodihydro-1′H,3′H-spiro[cyclopropane-1,2′-pyrrolizin]-7a′ (5′H)-yl)methoxy)-8-fluoro-4-(2-oxa-6-azaspiro[3.4]octan-6-yl)pyrido[4,3-d]pyrimidin-7-yl)-5-ethyl-6-fluoronaphthalen-2-ol] | > 1000
9 | CN(c1nc(OC[C@@]23CCCN2C[C@@]2(CC2(F)F)C3)nc2c(F)c(-c3cc(N)cc(Cl)c3C(F)(F)F)ncc12)C1CC1 [Example A-41, 7-(5-Amino-3-chloro-2-(trifluoromethyl)phenyl)-N-cyclopropyl-2-(((1S,7a'S)-2,2-difluorodihydro-1′H,3′H-spiro[cyclopropane-1,2′-pyrrolizin]-7a′ (5′H)-yl)methoxy)-8-fluoro-N-methylpyrido[4,3-d]pyrimidin-4-amine] | > 1000
10 | CCc1c(F)ccc2cc(O)cc(-c3ncc4c(N5CCC6(CCO6)C5)nc(OC[C@@]56CCCN5C[C@@]5(CC5(F)F)C6)nc4c3F)c12 (stereo partly shown) [Example A-22, 4-(2-(((1.S,7a'S)-2,2-Difluorodihydro-1′H,3′H-spiro[cyclopropane-1,2′-pyrrolizin]-7a′ (5′H)-yl)methoxy)-8-fluoro-4-(1-oxa-6-azaspiro[3.4]octan-6-yl)pyrido[4,3-d]pyrimidin-7-yl)-5-ethyl-6-fluoronaphthalen-2-ol] | > 1000

system: SW480 (G12V); test: KRAS mutant cell proliferation inhibition assay (CellTiter-Glo 3D), SW480; format: cell-based; conditions: Homo sapiens, 168 h, SW480 (G12V) cells, 7 days
Experimental: as §1, §2, §3, §4, §5, §6

Row | Compound | IC50 [nM]
11 | CCc1c(F)ccc2cc(O)cc(-c3ncc4c(N5CCC[C@]6(CCO6)C5)nc(OC[C@@]56CCCN5C[C@@]5(CC5(F)F)C6)nc4c3F)c12 (single isomer, unassigned) [Example A-16B] | 660
12 | Nc1cc(Cl)c(C(F)(F)F)c(-c2ncc3c(N4CC5COC(C5)C4)nc(OC[C@@]45CCCN4C[C@@]4(CC4(F)F)C5)nc3c2F)c1 (stereo partly drawn) [Example A-32, 3-(4-(6-Oxa-3-azabicyclo[4.2.1]nonan-3-yl)-2-(((1S,7a'S)-2,2-difluorodihydro-1′H,3′H-spiro[cyclopropane-1,2′-pyrrolizin]-7a′ (5′H)-yl)methoxy)-8-fluoropyrido[4,3-d]pyrimidin-7-yl)-5-chloro-4-(trifluoromethyl)aniline] | 336
13 | CCc1c(F)ccc2cc(O)cc(-c3ncc4c(N5CCOCC(F)C5)nc(OC[C@@]56CCCN5C[C@@]5(CC5(F)F)C6)nc4c3F)c12 (stereo partly drawn) [Example A-34, 4-(2-(((1S,7a'S)-2,2-Difluorodihydro-1′H,3′H-spiro[cyclopropane-1,2′-pyrrolizin]-7a′ (5′H)-yl)methoxy)-8-fluoro-4-(6-fluoro-1,4-oxazepan-4-yl)pyrido[4,3-d]pyrimidin-7-yl)-5-ethyl-6-fluoronaphthalen-2-ol] | 66.7
14 | CCc1c(F)ccc2cc(O)cc(-c3ncc4c(N5CC6COC(C6)C5)nc(OC[C@@]56CCCN5C[C@@]5(CC5(F)F)C6)nc4c3F)c12 (stereo partly shown) [Example A-33] | 168
15 | CCc1c(F)ccc2cc(O)cc(-c3ncc4c(N5CCOCC(F)(F)C5)nc(OC[C@@]56CCCN5C[C@@]5(CC5(F)F)C6)nc4c3F)c12 [Example A-35, 4-(4-(6,6-Difluoro-1,4-oxazepan-4-yl)-2-(((1.S,7a'S)-2,2-difluorodihydro-1′H,3′H-spiro[cyclopropane-1,2′-pyrrolizin]-7a′ (5′H)-yl)methoxy)-8-fluoropyrido[4,3-d]pyrimidin-7-yl)-5-ethyl-6-fluoronaphthalen-2-ol] | 159
16 | CCc1c(F)ccc2cc(O)cc(-c3ncc4c(N5CCCCC(F)C5)nc(OC[C@@]56CCCN5C[C@@]5(CC5(F)F)C6)nc4c3F)c12 (stereo partly drawn) [Example A-36, 4-(2-(((1S,7a'S)-2,2-Difluorodihydro-1′H,3′H-spiro[cyclopropane-1,2′-pyrrolizin]-7a′ (5′H)-yl)methoxy)-8-fluoro-4-(3-fluoroazepan-1-yl)pyrido[4,3-d]pyrimidin-7-yl)-5-ethyl-6-fluoronaphthalen-2-ol] | 102

Source: US20260015363A1, “SUBSTITUTED PYRIMIDINE-FUSED RING INHIBITOR, METHOD FOR PREPARING SAME, AND USE THEREOF” (Suzhou Zelgen Biopharmaceuticals Co., Ltd., priority 2022, published 2026)
